For one assay, the target named is human TS (Homo sapiens, UniProt P04818). In words: Inhibition of isolated human TS. Format: biochemical.
The next assay addresses T1, human DHFR (Homo sapiens, UniProt P00374).
T1 sequence (P00374 1-187): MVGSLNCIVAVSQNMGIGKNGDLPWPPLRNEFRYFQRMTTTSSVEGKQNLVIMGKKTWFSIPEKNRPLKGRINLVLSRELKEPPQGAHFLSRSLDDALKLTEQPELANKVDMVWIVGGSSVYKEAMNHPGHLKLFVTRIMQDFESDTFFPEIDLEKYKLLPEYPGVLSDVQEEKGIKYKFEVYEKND
In words: Inhibition of isolated human DHFR. It counts as biochemical.

In another assay the target is P. carinii DHFR (Pneumocystis carinii, UniProt P16184). In words: biochemical.
Sequence of P. carinii DHFR (P16184 whole entry): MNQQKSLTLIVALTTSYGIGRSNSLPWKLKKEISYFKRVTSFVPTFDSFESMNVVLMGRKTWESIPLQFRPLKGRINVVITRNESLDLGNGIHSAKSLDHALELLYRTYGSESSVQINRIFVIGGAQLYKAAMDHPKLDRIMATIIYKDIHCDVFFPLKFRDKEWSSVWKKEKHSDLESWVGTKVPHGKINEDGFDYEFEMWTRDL
The target in a further assay is rat liver DHFR (Rattus norvegicus, UniProt Q920D2). In words: Inhibition of isolated rat liver DHFR. Format: biochemical.
Sequence of rat liver DHFR (Q920D2 whole entry): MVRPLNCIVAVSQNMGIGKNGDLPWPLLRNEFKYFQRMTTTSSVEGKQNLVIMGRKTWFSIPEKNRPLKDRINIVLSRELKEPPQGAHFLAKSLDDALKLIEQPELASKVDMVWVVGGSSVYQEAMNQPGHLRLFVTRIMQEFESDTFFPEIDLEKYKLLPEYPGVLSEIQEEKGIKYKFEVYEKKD
A further assay has as its target M. avium DHFR (Mycobacterium avium, UniProt O30463). In words: Inhibition of isolated M. avium DHFR. It counts as biochemical.
The target in the next assay is T2, T. gondii DHFR (Toxoplasma gondii, UniProt Q07422).
T2 sequence (Q07422 1-610): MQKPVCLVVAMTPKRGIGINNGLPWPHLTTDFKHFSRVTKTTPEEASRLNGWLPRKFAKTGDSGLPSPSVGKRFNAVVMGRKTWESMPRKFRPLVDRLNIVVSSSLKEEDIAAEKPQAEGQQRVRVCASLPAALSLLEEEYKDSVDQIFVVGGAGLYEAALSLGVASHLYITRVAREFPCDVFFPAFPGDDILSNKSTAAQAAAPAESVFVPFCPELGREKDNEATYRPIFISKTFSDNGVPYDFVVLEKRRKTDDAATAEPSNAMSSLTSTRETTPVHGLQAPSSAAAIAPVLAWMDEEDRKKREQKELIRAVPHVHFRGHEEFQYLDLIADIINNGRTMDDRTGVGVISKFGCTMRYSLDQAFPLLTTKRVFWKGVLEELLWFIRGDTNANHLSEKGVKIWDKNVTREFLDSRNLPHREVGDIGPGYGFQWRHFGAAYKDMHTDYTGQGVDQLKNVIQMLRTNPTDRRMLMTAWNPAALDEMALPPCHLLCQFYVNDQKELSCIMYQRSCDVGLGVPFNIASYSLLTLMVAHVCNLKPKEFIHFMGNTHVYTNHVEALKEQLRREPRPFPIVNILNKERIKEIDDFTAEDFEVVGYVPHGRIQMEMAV
Format: biochemical. The settings on record: 20 compounds jointly assayed, by both protocols (Table 1 and Table 2 conditions).

Assay [1] relates to 60 tumor cell lines. In words: NCI in vitro preclinical antitumor screening, 60 tumor cell lines. Format: cell-based.
The subject of assay [2] is CCRF-CEM. In words: NCI tumor cell growth inhibition, CCRF-CEM. The settings on record: Homo sapiens, read-out: GI50 CCRF-CEM. Format: cell-based.
Assay [3] relates to HL-60 × (TB). In words: NCI tumor cell growth inhibition, HL-60 ×. The settings on record: Homo sapiens, HL-60, read-out: GI50 HL-60 × (TB). Format: cell-based.
Assay [4] concerns K-562. In words: NCI tumor cell growth inhibition, K-562. It counts as cell-based. The settings on record: Homo sapiens, K562, read-out: GI50 K-562.
In assay [5] the test system is MOLT-4. In words: NCI tumor cell growth inhibition, MOLT-4. It counts as cell-based. The settings on record: Homo sapiens, MOLT-4, read-out: GI50 MOLT-4.
The subject of assay [6] is RPMI-8226. In words: NCI tumor cell growth inhibition, RPMI-8226. It counts as cell-based. As to conditions: Homo sapiens, RPMI-8226, read-out: GI50 RPMI-8226.
The test system of assay [7] is NCI-H460. In words: NCI tumor cell growth inhibition, NCI-H460. It counts as cell-based. The settings on record: Homo sapiens, NCI-H460, read-out: GI50 NCI-H460.
In assay [8] the test system is HT29. In words: NCI tumor cell growth inhibition, HT29. Format: cell-based. As to conditions: Homo sapiens, HT-29, read-out: GI50 HT29.
The test system of assay [9] is SW-620. In words: NCI tumor cell growth inhibition, SW-620. Format: cell-based. The settings on record: Homo sapiens, SW-620, read-out: GI50 SW-620.
For assay [10], the system named is HCT 15. In words: NCI tumor cell growth inhibition, HCT 15. It counts as cell-based. As to conditions: Homo sapiens, HCT-15, read-out: GI50 HCT 15.
For assay [11], the system named is U251. In words: NCI tumor cell growth inhibition, U251. It counts as cell-based. The settings on record: Homo sapiens, U-251, read-out: GI50 U251.
The subject of assay [12] is SF268. In words: NCI tumor cell growth inhibition, SF268. As to conditions: Homo sapiens, SF-268, read-out: GI50 SF268. It counts as cell-based.
In a further assay the test system is LOX IMVI. In words: NCI tumor cell growth inhibition, LOX IMVI. Format: cell-based. The settings on record: Homo sapiens, read-out: GI50 LOX IMVI.
The subject of assay [13] is ACHN. In words: NCI tumor cell growth inhibition, ACHN. It counts as cell-based. The settings on record: Homo sapiens, read-out: GI50 ACHN.
The test system of assay [14] is CAKI-1. In words: NCI tumor cell growth inhibition, CAKI-1. Format: cell-based. As to conditions: Homo sapiens, CAKI-1, read-out: GI50 CAKI-1.
Assay [15] deals with human CCRF-CEM leukemia cells. The settings on record: read-out: EC50 growth of human CCRF-CEM leukemia cells in culture; cited from earlier work.
For assay [16], the system named is folyl poly-γ-glutamate synthetase (FPGS). As to conditions: cited from earlier work.
The test system of assay [17] is 60 tumor cell lines. As to conditions: in 11 of the 60 tumor cell lines evaluated; cited from earlier work.
In assay [18] the test system is CCRF-CEM. As to conditions: read-out: GI50 CCRF-CEM; Leukemia; cited from earlier work.
For assay [19], the system named is HL-60 × (TB). The settings on record: read-out: GI50 HL-60 × (TB); Leukemia; cited from earlier work.
For assay [20], the system named is K-562. As to conditions: read-out: GI50 K-562; Leukemia; cited from earlier work.
Assay [21] deals with MOLT-4. The settings on record: read-out: GI50 MOLT-4; Leukemia; cited from earlier work.
Assay [22] concerns RPMI-8226. As to conditions: read-out: GI50 RPMI-8226; Leukemia; cited from earlier work.
The test system of assay [23] is NCI-H460. The settings on record: read-out: GI50 NCI-H460; Nonsmall Cell Lung Cancer; cited from earlier work.
In assay [24] the test system is HT29. As to conditions: read-out: GI50 HT29; Colon Cancer; cited from earlier work.
The test system of assay [25] is SW-620. As to conditions: read-out: GI50 SW-620; Colon Cancer; cited from earlier work.
Assay [26] relates to HCT 15. As to conditions: read-out: GI50 HCT 15; Colon Cancer; cited from earlier work.
Assay [27] deals with U251. As to conditions: read-out: GI50 U251; Central Nervous System Cancer; cited from earlier work.
The subject of assay [28] is SF268. As to conditions: read-out: GI50 SF268; Central Nervous System Cancer; cited from earlier work.
A further assay deals with PC-3. The settings on record: read-out: GI50 PC-3; Prostrate Cancer; cited from earlier work.
In a further assay the test system is MCF-7. The settings on record: read-out: GI50 MCF-7; Breast Cancer; cited from earlier work.
Assay [29] relates to ACHN. As to conditions: read-out: GI50 ACHN; Renal Cancer; cited from earlier work.
Assay [30] deals with CAKI-1. As to conditions: read-out: GI50 CAKI-1; Renal Cancer; cited from earlier work.

Read-outs that look alike come from different tables or passages of the source.

One may read the IC50 as the point on the concentration scale where inhibition reaches its midpoint. As usually defined, the GI50 is the concentration giving 50% growth inhibition. What is called EC50 is the midpoint of the concentration-response curve.

Sequence of human TS (P04818 whole entry): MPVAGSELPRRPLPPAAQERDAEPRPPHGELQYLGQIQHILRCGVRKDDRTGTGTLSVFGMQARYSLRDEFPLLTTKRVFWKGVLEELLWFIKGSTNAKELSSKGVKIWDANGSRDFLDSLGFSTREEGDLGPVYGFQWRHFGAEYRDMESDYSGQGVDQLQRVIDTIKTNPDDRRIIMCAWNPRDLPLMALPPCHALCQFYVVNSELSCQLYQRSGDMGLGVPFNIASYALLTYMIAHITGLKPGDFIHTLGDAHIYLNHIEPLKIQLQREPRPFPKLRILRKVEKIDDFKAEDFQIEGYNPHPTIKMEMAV
Sequence of M. avium DHFR (O30463 1-181): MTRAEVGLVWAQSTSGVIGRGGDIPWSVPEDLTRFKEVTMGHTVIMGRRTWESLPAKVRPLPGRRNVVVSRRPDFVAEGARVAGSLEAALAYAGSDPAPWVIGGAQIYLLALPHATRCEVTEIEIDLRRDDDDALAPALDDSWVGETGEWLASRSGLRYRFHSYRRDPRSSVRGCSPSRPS

In the case of `CC(C)c1c(Sc2ccc(C(=O)N[C@@H](CCC(=O)O)C(=O)O)cc2)[nH]c2nc(N)nc(N)c12` [Compound 4, N-[4-[(2,4-Diamino-5-isopropyl-7H-pyrrolo[2,3-d]pyrimidin-6-yl)sulfanyl]-benzoyl]-L-glutamate], on human TS, the “fold less inhibitory than pemetrexed against hTS” value stood at 4 fold. Also, the “fold less potent than 1 as inhibitor of hTS” value on human TS is 63-74 fold. For the same compound, the IC50 against human DHFR is 90 nM; against P. carinii DHFR it was 4.8 nM; at rat liver DHFR, 186 nM; against M. avium DHFR it was 0.391 nM. Also, at human DHFR, the “fold less potent as hDHFR inhibitor compared with MTX” value is given as ~4 fold. Further, the “fold more potent than pemetrexed as hDHFR inhibitor” value at human DHFR is reported as ~17 fold. Besides, on human DHFR, the “inhibition of hDHFR, in words” value was “good inhibitors”. Besides, on P. carinii DHFR (IC50 rat liver DHFR/IC50 P. carinii DHFR), the Selectivity ratio rl/pc turned out to be 38.8. Moreover, the Selectivity ratio rl/ma on M. avium DHFR (IC50 rat liver DHFR/IC50 M. avium DHFR) is reported as 475.7. For the same compound, the “potency rank against T. gondii DHFR, in words” value on T. gondii DHFR is on record as “three most potent compounds”. The GI50 in the assay on 60 tumor cell lines [1] is < 1000 nM; in the assay with CCRF-CEM [2], 536 nM; with HL-60 × (TB) [3] it was 5650 nM; with K-562 [4], 932 nM; in the assay with MOLT-4 [5], 1310 nM; in the assay on RPMI-8226 [6], 7740 nM. The GI50 in the assay on NCI-H460 [7] was 6450 nM; with HT29 [8], 5760 nM; in the assay on SW-620 [9], 4710 nM; with HCT 15 [10], 34800 nM; with U251 [11] it was 7240 nM; with SF268 [12], 17800 nM. The figures for the GI50 with LOX IMVI, in the assay with ACHN [13] and in the assay on CAKI-1 [14] were 1140 nM, 7390 nM and 4250 nM, respectively.
On to `Cc1c(Sc2ccc(C(=O)N[C@@H](CCC(=O)O)C(=O)O)cc2)[nH]c2nc(N)nc(N)c12` [Compound 1], for which, in assay [15], the EC50 is 190 nM. The FPGS substrate activity result in assay [16] was “reasonable”. For the same compound, the 50% growth inhibitory concentration (GI50) is ≤ 100 nM with 60 tumor cell lines [17]; 221 nM with CCRF-CEM [18]; 43.5 nM in the assay on HL-60 × (TB) [19]; 29.5 nM in the assay with K-562 [20]; < 10 nM with MOLT-4 [21]; < 10 nM with RPMI-8226 [22]. Also, the GI50 in the assay with NCI-H460 [23] was 631 nM; with HT29 [24], 160 nM; with SW-620 [25] it was 124 nM; with HCT 15 [26], 59500 nM; in the assay with U251 [27], 824 nM; in the assay with SF268 [28], 74700 nM. Also, the GI50 in the assay with PC-3 is 43.6 nM; in the assay with MCF-7, > 100000 nM; in the assay on ACHN [29], 24200 nM; with CAKI-1 [30], > 100000 nM.
